Laboratory results taken from PubChem BioAssay AID179 (DTP/NCI, 2004).
Active and inactive are the calls of the source.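 How the source made its calls: active means compounds giving half or more protection of infected cells from virus-caused growth loss, again on retest; inactive means the rest.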

Test system: CEM cells HIV-1 protection, formazan growth assay
Experiment: NCI AIDS Antiviral Assay
Conditions: for IC50: measured here: growth of uninfected CEM cells
Outline: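 CEM (human) cells, HIV-1 infected vs uninfected, 5-point dosing, formazan growth read-out. Retest threshold 50% protection.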

SMILES | EC50 [µM] | IC50 [µM] | outcome
O=c1n(Cc2ccccc2)c(=O)n2c(=O)n(Cc3ccccc3)c(=O)n12 | > 200 | 148 | –
Nn1c(-c2ccccc2)n[nH]c1=O | > 200 | > 200 | –
CNC(=O)OCc1c(COC(=O)NC)c2n(c1C)CS(=O)(=O)C2 | > 200 | > 200 | –
CCCCC#CCC(C(=O)O)C(=O)O | > 1260 | > 1260 | –
OC1(c2ccccc2)CSc2ncnn21 (stereo not drawn) | 138 | > 200 | –
O=C(O)C1CC(O)CN1S(=O)(=O)Cc1ccccc1 (stereo not drawn) | > 200 | > 200 | –
O=C1C2c3[nH]c4ccccc4c3C3CCSCC3C2C(=O)N1c1ccccc1 (stereo not drawn) | – | – | inactive
COc1ccc(Cc2c(N)[nH]c(=O)n(C)c2=O)cc1 | > 200 | 89.1 | –
N#C/C(=C\c1ccccc1)c1cccc(Br)c1 | > 200 | > 200 | –
CC(=O)Oc1c(C)c2c(c3ncccc13)OC(C)C2 (stereo not drawn) | > 200 | 3.16 | –
COc1ccc(C2c3cc4c(cc3OC(NNC(N)=O)C2C)OCO4)cc1 (stereo not drawn) | > 200 | 3.89 | –
COCC(=O)[C@]1(O)Cc2c(O)c3c(c(O)c2[C@@H](OC2CC(N)C(O)C(C)O2)C1)C(=O)c1c(OC)cccc1C3=O (stereo partly drawn) | > 0.2 | 0.0631 | –
O=S(=O)(NCCSSCCNS(=O)(=O)c1cccs1)c1cccs1 | > 200 | 20 | –
CCOC(=O)CN=c1nc(SC)sc2c(C(=O)OCC)nc(Sc3ccccc3)n12 | > 60.3 | 10.7 | –
COc1ccccc1N1C(=O)/C(=C\c2cccc(Oc3ccccc3)c2)S(=O)(=O)C1c1ccccc1 (stereo not drawn) | > 200 | 36.3 | –
CSc1c(C(=O)Nc2ccc(Cl)cc2)c(N)nn1-c1ccccc1 | > 200 | > 200 | –
CCOC(=O)C1=C(C(=O)OCC)C2(c3ccccc3)N(O1)c1ccccc1C2(C)C (stereo not drawn) | – | – | inactive
O=C1/C(=C/c2ccccc2)CCc2ccccc21 | > 200 | 11.5 | –
Cc1ccc2nc(C=Nc3ccccc3Cl)cc(C)c2c1 | > 200 | 10.5 | –
Cc1[nH]c(=O)[nH]c(=O)c1CCSSCCc1c(C)[nH]c(=O)[nH]c1=O | > 200 | > 200 | –
O=S(=O)(O)C(I)(I)S(=O)(=O)O | > 200 | > 200 | –
O=C(O)C12C3CCCC1C2CC3 (stereo not drawn) | – | – | inactive

SMILES | EC50 [µM] | IC50 [µM] | outcome
O=C1c2ccc3c4ccccc4n(-c4ccccc4)c3c2C(=O)N1c1ccc(Cl)cc1 | – | – | inactive
C=C1C(=O)[C@@]23C(O)C[C@@H]4C(C)(C)CCC(O)C4(COC(C)=O)[C@@H]2CC[C@@H]1[C@H]3O (stereo partly drawn) | > 631 | 0.372 | –
CCOC(=O)NC(OCc1ccccc1)(C(=O)OC)C(F)(F)F (stereo not drawn) | > 200 | > 200 | –
NC(Cc1ccc(N(CCCl)CCCl)cc1)C(=O)O (stereo not drawn) | > 200 | 12 | –
CC(NC(CC12CC3CC(CC(C3)C1)C2)C(N)=O)c1ccccc1 (stereo not drawn) | > 200 | 34.7 | –
COc1ccc2c(c1)OCC1Cc3ccccc3OC21 (stereo not drawn) | > 200 | 53.7 | –
Cc1ccc2c(c1)sc1n[nH]c(=S)n12 | > 117 | > 117 | –
Oc1ccc2ccccc2c1-c1c(Nc2ccccc2)ccc2ccccc12 | > 50.1 | 8.91 | –
CN(C)CCN1CCc2c([nH]c3ccccc23)C1c1cccnc1 (stereo not drawn) | > 6.31 | > 6.31 | –
O=c1c(F)cn(Cc2c(Cl)cccc2Cl)c(=O)n1Cc1c(Cl)cccc1Cl | > 200 | 47.9 | –
O=C1COC(c2ccccc2O)=NN1CCN1CCOCC1 | > 105 | > 105 | –
COc1cccc(/C(CC(O)(C(F)(F)F)C(F)(F)F)=N\N(C)C)c1 | > 200 | > 200 | –
CC(=O)NC(NNC(NC(C)=O)(c1ccccc1)c1ccccc1)(c1ccccc1)c1ccccc1 | > 200 | > 200 | –
FC(F)(F)C(C1=NC(C(F)(F)F)(C(F)(F)F)N=C(N2CCOCC2)O1)C(F)(F)F | > 2 | > 2 | –
O=C1NN=C2CCCCCCC12 (stereo not drawn) | > 302 | > 302 | –
CC(=O)Oc1ccc(OC(Oc2ccccc2)c2ccccc2)cc1 (stereo not drawn) | > 89.1 | 60.3 | –
COC(=O)/C(=C(\C)C=O)N1C(=O)C(NC(=O)c2ccccc2)C1SSc1nc2ccccc2s1 (stereo not drawn) | > 200 | 12.9 | –
COC(=O)c1c(C)cc(OC(=O)c2c(C)cc(O)c(/C=N\O)c2O)c(C)c1O | > 151 | 9.77 | –
COc1ccc(C[C@H](N)C(=O)N2C[C@H](CO)C[C@H](n3ccc(=O)[nH]c3=O)C2)cc1 | > 617 | > 617 | –
Clc1ccc(C(OCn2ccnc2)c2nc3ccccc3[nH]2)c(Cl)c1 (stereo not drawn) | > 200 | 107 | –
CCOC(=O)CCC1(CCC(=O)OCC)CCCCCCCCC(CCC(=O)OCC)(CCC(=O)OCC)C(=O)C1=O | > 200 | > 200 | –
O=C1Cc2c(-c3ccccc3)cc(-c3ccccc3)nc2-c2ccccc2N1 | > 200 | 6.17 | –

SMILES | EC50 [µM] | IC50 [µM] | outcome
O=C1C(=O)N(CNC(c2ccccc2)c2ccccc2)c2ccccc21 | > 126 | 102 | –
COc1ccc(N=Nc2c(N)nn3cc4c(nc23)CCCCC4)cc1 | > 200 | 34.7 | –
O=C1NC2(CN3CCC2CC3)C(=O)N1CN(Cc1ccccc1)c1ccccc1 (stereo not drawn) | > 200 | 91.2 | –
CN(C)c1nn2c(-c3ccccc3)nnc2o1 | > 200 | > 200 | –
O=C1[C@@H]2C(c3ccccn3)=NO[C@@H]2C(=O)N1c1ccc(Cc2ccc(N3C(=O)[C@H]4C(c5ccccn5)=NO[C@H]4C3=O)cc2)cc1 | > 8.71 | > 8.71 | –
Cc1c(C(=O)O)n(C)c(=O)n(C)c1=O | – | – | inactive
CCCCCCCCCCCCCCC(C(=O)O)C(=O)O | > 832 | 398 | –
COc1cc(C[S+]2CCCC2)c(SC)cc1C[S+]1CCCC1 | > 83.2 | > 83.2 | –
O=c1c(-c2ccc(O)c(O)c2)coc2cc(O)cc(O)c12 | > 200 | 15.8 | –
O=c1ccc2nc3cc(Br)ccc3sc-2c1 | > 24.5 | > 24.5 | –
CC(CCC(=O)O)[C@H]1CCC2[C@@H]3CC[C@@H]4CC(O)CC[C@]4(C)C3CC[C@@]21C (stereo partly drawn) | > 200 | > 100 | –
CNC(=O)c1cc2nc3ccccc3c(=O)n2c2ccccc12 | > 100 | > 100 | –
CC(C)CS(=O)(=O)/C(=C(\c1ccc(Br)cc1)S(=O)(=O)CC(C)C)c1ccc(Br)cc1 | > 1.29 | > 1.29 | –
CCOC(=O)CCCN(c1[nH]c(C)c(C)c1C#N)S(=O)(=O)c1ccc(C)cc1 | > 200 | 81.3 | –
Cc1ccc2c(c1)-c1c3c(nn1-c1ccccc1)-c1ccccc1SC3O2 (stereo not drawn) | > 3.89 | > 3.89 | –
C#CCN(N=O)C(=O)ON1C(=O)CCC1=O | > 1120 | 537 | –
O=C(O)C1CCC(c2ccc(Oc3ccccc3)cc2)N1 (stereo not drawn) | > 200 | > 200 | –
Cc1nc(-n2nc(-c3ccccc3)cc2-c2ccccc2)sc1C(=O)/C=C/c1ccc([N+](=O)[O-])cc1 | > 38 | 30.9 | –
O=c1cc(-c2ccccc2)oc2cc(OCCSCCCCCCCCCCSCCOc3ccc4c(=O)cc(-c5ccccc5)oc4c3)ccc12 | > 1.95 | > 1.95 | –
CCOC(=O)Cc1nc2c(=O)[nH]cnc2n1C1OC(COC(C)=O)C(OC(C)=O)C1OC(C)=O (stereo not drawn) | > 200 | > 200 | –
